Measurements from patent US20150320773A1, “TREATMENT OF INFLAMMATION” (Vascular Biogenics Ltd., priority 2011, published 2015).

Experiments:
[1] = target: 12-LO (12-lipoxygenase) (Homo sapiens, UniProt P18054); settings: concentrations of up to 10 μM; data not shown
[2] = system: human monocytes; assay: Cell viability assay (MTS) of human monocytes; assay type: cell-based; settings: 16 hours, doses of 1-10 j±g/ml
[3] = system: phosphorylation of Akt, MEK1/2, ERK1/2 and p38 in human monocytes; assay: Chemokine-induced signaling in human monocytes, Western blot
Source text: Untreated cells were used as reference for MCP-1 activation. Following treatment, cells were washed twice, harvested with lysis buffer and analyzed by SDS-PAGE. […] Alpha Tubulin levels serve as loading control.

[4] = target: TLR5 (Mus musculus, UniProt Q9JLF7); settings: mouse BMDCs; flagellin; 1.7, 8.5 or 17 μM
Sequence of TLR5 (Q9JLF7 27-859): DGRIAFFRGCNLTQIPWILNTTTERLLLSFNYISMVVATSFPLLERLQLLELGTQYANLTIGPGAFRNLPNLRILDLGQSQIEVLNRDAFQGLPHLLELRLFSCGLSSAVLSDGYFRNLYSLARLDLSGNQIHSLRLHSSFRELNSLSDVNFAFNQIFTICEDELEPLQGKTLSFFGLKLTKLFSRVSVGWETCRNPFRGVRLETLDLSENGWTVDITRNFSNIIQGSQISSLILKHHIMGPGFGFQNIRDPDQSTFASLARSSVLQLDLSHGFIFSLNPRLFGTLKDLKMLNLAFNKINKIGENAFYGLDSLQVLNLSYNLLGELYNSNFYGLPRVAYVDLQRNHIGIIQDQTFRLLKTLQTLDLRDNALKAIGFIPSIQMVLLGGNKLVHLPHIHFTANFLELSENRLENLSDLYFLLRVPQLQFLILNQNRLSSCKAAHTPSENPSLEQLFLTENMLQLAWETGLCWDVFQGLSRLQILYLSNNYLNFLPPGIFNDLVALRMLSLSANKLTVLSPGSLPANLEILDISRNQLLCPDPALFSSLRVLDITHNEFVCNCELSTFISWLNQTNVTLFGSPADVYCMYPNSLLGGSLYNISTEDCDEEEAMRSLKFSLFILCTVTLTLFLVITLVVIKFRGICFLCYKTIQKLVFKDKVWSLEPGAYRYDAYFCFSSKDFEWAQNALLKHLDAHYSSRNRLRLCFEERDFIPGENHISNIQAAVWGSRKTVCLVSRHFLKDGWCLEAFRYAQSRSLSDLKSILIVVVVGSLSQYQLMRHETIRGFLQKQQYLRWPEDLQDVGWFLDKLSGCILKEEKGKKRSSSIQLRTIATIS

[5] = system: patients; assay: Vascular inflammation in patients (statin therapy); assay type: in vivo, human; settings: in some instances
Protocol: In some examples according to any one of the embodiments of Methods 1a, 1b, 2, and 3 described herein, the vascular inflammation is measured using positron emission computed tomography (PET/CT) imaging quantifying 18-fluorodeoxyglucose (18-FDG) uptake as a target to background ratio (TBR), e.g., as described herein, or in Example 8 of WO2011/083465.

[6] = system: MCF-7 human breast cancer cells; assay: Wound-healing 'scratch' assay; assay type: cell-based; settings: data not shown
[7] = system: THP-1 cells; assay: Trans-well chemotaxis assay of THP-1 cells; assay type: cell-based, human
Protocol: For chemo-attraction of monocytes, RANTES (100 ng/ml), MIP-1α (50 ng/ml) or MCP-1 (50 ng/ml) were dissolved in 0.5% fetal bovine serum(FBS)/RPMI-1640 medium and placed at the lower chamber of QCM™ 24-well migration assay plate (Corning-Costar; 5 μm pores). For chemo-attraction of CD4+ cells, 0.5% FBS/RPMI-1640 solution containing RANTES (100 ng/ml) and SDF-1α (50 ng/ml) was used, using the same plate setting. Migration assay was conducted by seeding 300,000 treated cells in the upper chamber, followed by incubation of 3-4 hours. Subsequently, the number of cells which migrated to the medium in the lower compartment was determined by FACS.
Data are mean f SD from 4 experiments in triplicates, normalized to untreated cells. **, p<0.001.

[8] = system: NIH-3T3 mouse fibroblasts; assay: Wound-healing 'scratch' assay; assay type: cell-based; settings: data not shown
[9] = system: THP-1 cells; assay: AKT and ERK pathway activation in THP-1 cells, Western blot; settings: 8.5 μM VB-201, 20 min
Protocol: THP-1 cells were incubated for 16 hrs in RPMI-1640 medium supplemented with 0.5% FBS and 1% Pen/Strep/Glutamine to reduce basal signaling readouts. […] Stimulation with 100 μM GTP-γ-s, an activator of G-proteins, was performed for 2, 5 or 15 minutes. Cells were harvested and analyzed by SDS-PAGE. […] Total ERK1/2 levels serve as loading control.
The THP1 or HEK293 cell lines were grown in medium supplemented with 0.5% FBS and 1% Pen/Strep/Glutamine. […] Cells were washed twice and harvested with lysis buffer and analyzed by SDS-PAGE. […] Alpha Tubulin levels serve as loading control.
THP-1 cells were incubated for 16 hrs in RPMI-1640 medium supplemented with 0.5% FBS and 1% Pen/Strep/Glutamine to reduce basal signaling readouts. […] Stimulation with 30 μg/ml of CRP, activator the CD32 and CD64 receptors, was performed for 2, 5 or 15 min. Cells were harvested and analyzed by SDS-PAGE. […] Total ERK1/2 levels serve as loading control.

[10] = system: chemokine receptors; assay: GPCR activation assay, agonist mode (calcium flux); assay type: cell-based; settings: 12.5 μM VB-201; ChemiScreen stable cell lines
Protocol: Analyses were performed by Millipore GPCR Profiler Service, by measuring intracellular calcium signal in real time using FLIPR^TETRA device. […] Antagonist percentage inhibition was referenced to EC80 control wells for each tested GPCR.

[11] = target: Lp-PLA2 (Homo sapiens, UniProt Q13093); settings: concentrations of up to 40 μM; data not shown
Sequence of Lp-PLA2 (Q13093 22-441): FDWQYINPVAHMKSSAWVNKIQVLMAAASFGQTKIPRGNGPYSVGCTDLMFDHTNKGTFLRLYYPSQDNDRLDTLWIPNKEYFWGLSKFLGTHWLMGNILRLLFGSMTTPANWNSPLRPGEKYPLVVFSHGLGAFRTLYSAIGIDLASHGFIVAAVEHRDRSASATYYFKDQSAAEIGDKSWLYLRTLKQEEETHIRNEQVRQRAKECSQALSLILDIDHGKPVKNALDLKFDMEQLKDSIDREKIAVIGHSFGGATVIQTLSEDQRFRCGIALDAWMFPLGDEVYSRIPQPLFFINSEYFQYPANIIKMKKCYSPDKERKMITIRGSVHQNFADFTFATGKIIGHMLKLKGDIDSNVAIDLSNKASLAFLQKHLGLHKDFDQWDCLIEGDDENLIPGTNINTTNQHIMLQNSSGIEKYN

[12] = system: monocytes; assay: Monocyte adhesion assay (TNFα-stimulated HUVEC); assay type: cell-based, human; settings: 1-10 μg/ml VB-201; compared to the solvent control
Protocol: Matrix plates were pre-seeded with HUVEC and subjected to 4 hour stimulation with 10 ng/ml TNFα to induce expression of adhesion molecules. Freshly isolated monocytes were stained for 30 minutes with 5 µM calcein AM (Invitrogen) in serum free RPMI and then washed twice with PBS to remove excess dye. […] 10^5 stained monocytes were loaded per well into 96-well dishes and allowed to adhere for 15 minutes. Following 4 washes with PBS, adherent monocyte intensity was read using FLUOROSKAN Ascent FL device using excitation at 485 nm and emission at 538 nm.
Next, we examined whether VB-201 or oxidized PAPC treatment of monocytes affects their interaction with endothelial cells. HUVEC were plated in 96-wells and treated with TNFαc to induce expression of adhesion molecules. […] Following extensive washes, adherent monocytes were quantified by fluorescence.

[13] = target: TLR4 (Homo sapiens, UniProt O00206); settings: human monocytes; LPS; 1.7, 8.5 or 17 μM
Sequence of TLR4 (O00206 24-839): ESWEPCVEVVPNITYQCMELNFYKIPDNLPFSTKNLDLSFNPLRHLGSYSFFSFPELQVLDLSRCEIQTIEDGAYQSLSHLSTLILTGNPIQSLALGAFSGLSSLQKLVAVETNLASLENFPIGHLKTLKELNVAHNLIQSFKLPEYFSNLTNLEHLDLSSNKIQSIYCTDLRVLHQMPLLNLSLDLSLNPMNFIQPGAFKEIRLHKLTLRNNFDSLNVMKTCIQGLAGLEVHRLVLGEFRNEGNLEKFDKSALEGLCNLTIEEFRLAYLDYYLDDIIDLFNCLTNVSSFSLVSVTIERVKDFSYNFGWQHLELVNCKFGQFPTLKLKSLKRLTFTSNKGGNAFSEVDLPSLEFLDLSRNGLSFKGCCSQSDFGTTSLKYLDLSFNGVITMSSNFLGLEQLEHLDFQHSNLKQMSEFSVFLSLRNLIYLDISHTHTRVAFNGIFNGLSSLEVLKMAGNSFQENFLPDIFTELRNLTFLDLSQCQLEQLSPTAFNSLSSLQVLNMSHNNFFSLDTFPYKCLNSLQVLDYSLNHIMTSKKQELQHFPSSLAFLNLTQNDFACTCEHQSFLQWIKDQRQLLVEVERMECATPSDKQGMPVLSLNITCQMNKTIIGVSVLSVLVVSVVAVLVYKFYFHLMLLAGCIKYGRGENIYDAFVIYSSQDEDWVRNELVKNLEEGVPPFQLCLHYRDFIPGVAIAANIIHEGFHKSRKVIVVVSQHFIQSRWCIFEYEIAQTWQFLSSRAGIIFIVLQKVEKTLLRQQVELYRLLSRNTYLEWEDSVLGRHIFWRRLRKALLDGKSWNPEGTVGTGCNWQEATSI
Sequence of TLR4 (Q9Y6Y9 17-160 partner limits assumed): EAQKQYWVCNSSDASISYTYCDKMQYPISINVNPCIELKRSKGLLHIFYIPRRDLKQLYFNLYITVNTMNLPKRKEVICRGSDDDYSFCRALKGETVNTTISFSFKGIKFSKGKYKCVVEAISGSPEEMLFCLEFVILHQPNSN

[14] = system: CD4+ T-cells; assay: Chemotaxis assay of CD4+ T-cells; settings: 5 μg/ml; RANTES (100 ng/ml) and SDF-1α (50 ng/ml)
Protocol: Human monocytes (CD14+ cells) and CD4+ T-cells were isolated from whole blood of healthy donors. Following PBMCs separation from whole blood using Ficoll-Paque and leucosep tubes (Greiner Bio-One), CD14+/CD4+ cells were separated using specific anti-CD14/anti-CD4 micro beads, respectively (Miltenyi Biotech). Purity of the isolated populations was validated using specific antibodies by FACS analysis. […] For chemo-attraction of monocytes, RANTES (100 ng/ml), MIP-1α (50 ng/ml) or MCP-1 (50 ng/ml) were dissolved in 0.5% fetal bovine serum(FBS)/RPMI-1640 medium and placed at the lower chamber of QCM™ 24-well migration assay plate (Corning-Costar; 5 μm pores). For chemo-attraction of CD4+ cells, 0.5% FBS/RPMI-1640 solution containing RANTES (100 ng/ml) and SDF-1α (50 ng/ml) was used, using the same plate setting. Migration assay was conducted by seeding 300,000 treated cells in the upper chamber, followed by incubation of 3-4 hours. Subsequently, the number of cells which migrated to the medium in the lower compartment was determined by FACS.

[15] = system: human monocytes; assay: ROS formation in human monocytes (DCF, FACS); assay type: cell-based; settings: overnight; VB-201 10 μg/ml, PGPC 10 μg/ml, OxPAPC 100 μg/ml; relative to PBS
Protocol: Detection of ROS was performed through FACS quantification of the oxidation product dichlorodihydrofluorescein (DCF). Data are mean±SD from 3-4 experiments performed in duplicates. FIG. 23B is a histogram from a representative experiment showing DCF levels in treated cells.

[16] = system: Human monocytes (CD14+ cells); assay: In vitro cell migration (trans-well chemotaxis) assay of human monocytes; assay type: cell-based
Protocol: Following incubation, cells were loaded to the upper chamber and allowed to migrate for 3.5 hours towards 0.5% fetal bovine serum/RPMI-1640 medium supplemented with recombinant human MCP-1 and RANTES (50 ng/ml each).
In order to further ascertain the significance of ERK1/2 phosphorylation and MEK1/2 phosphorylation to monocyte chemotaxis, the effect of the RAF inhibitor GW5074, which reduces MEK and ERK phosphorylation, on monocyte chemotaxis was determined in a trans-well migration assay using a combination of MCP-1 ([…]) and RANTES (70 ng/ml) as attractant. Monocytes were pre-treated with 5 μM GW5074 for 30 minutes prior to seeding in the migration chamber.
For this purpose, monocytes from healthy donors were pre-incubated for 30 min with either solvent (0.005% ethanol/PBS), phosphatidylcholine (PC; 5 μg/ml), partially oxidized PAPC (24 h oxidation; 40 μg/ml) or PGPC (5 μg/ml), and allowed to migrate towards recombinant human MCP-1 (CCL2; ligand for CCR2) and RANTES (CCL5; ligand for CCR1, CCR3, CCR5, US28) as attractants (50 ng/ml each). […]

[17] = system: G-coupled protein receprors (GPRC); assay: Selectivity: effect on activity of additional proteins
[18] = system: human Neutrophils; assay: Chemotaxis assay of human neutrophils; settings: 5 μg/ml; towards LPS or 10% FBS/MCP-3
Source text: Data are mean±SD from 3 different experiments performed in triplicates. […] Data are mean±SD from 4 different donors tested in triplicates.

[19] = target: TLR2 (Homo sapiens, UniProt O60603); settings: human monocytes; BO-VB201; anti-human TLR2 blocking antibody
Sequence of TLR2 (O60603 21-784): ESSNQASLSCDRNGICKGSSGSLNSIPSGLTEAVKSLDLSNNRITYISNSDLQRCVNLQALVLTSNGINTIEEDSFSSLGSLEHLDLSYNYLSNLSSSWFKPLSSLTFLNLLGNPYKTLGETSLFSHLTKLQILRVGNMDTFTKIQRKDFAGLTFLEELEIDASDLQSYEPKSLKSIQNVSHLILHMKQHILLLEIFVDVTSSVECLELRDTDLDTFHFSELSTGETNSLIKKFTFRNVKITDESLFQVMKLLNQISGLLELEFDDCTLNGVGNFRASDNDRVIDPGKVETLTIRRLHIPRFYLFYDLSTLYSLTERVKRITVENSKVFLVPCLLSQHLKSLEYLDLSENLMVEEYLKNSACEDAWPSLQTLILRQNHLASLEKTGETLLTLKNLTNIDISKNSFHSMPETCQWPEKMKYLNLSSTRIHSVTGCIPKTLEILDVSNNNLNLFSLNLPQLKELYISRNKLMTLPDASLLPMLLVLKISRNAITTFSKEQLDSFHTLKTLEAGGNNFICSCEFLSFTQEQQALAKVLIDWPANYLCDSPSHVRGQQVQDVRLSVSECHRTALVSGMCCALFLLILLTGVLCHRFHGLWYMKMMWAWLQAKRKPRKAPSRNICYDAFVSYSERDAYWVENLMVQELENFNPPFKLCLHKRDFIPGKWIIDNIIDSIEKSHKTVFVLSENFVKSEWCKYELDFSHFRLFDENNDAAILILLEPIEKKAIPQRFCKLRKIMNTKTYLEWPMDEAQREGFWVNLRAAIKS
Protocol: Human monocytes were incubated for 15 min with anti-human TLR2 blocking antibody. […] Streptavidin-APC (1:200) was used to detect binding.

[20] = 5 μg/ml VB-201, MCP-1 and MCP-3-stimulated cells

Sequence of 12-LO (12-lipoxygenase) (P18054 whole entry, species assumed): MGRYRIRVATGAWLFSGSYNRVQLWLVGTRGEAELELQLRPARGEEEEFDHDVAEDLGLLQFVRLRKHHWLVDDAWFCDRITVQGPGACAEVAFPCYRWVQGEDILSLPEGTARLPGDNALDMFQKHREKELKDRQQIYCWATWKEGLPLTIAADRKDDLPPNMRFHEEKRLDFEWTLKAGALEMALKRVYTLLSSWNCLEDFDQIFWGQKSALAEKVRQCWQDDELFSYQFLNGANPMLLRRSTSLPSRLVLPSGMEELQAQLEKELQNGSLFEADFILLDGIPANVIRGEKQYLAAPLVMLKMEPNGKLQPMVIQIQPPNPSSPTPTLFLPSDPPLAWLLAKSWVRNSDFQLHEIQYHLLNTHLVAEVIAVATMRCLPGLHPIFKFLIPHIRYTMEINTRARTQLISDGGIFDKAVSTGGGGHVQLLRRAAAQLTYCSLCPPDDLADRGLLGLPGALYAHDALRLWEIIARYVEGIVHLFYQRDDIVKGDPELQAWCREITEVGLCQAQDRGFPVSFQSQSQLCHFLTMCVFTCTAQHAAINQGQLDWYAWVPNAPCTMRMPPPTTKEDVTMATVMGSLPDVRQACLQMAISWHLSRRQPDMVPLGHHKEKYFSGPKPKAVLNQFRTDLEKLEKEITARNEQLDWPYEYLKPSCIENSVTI

In the case of `CCCCCCCCCCCCCCCCOC[C@H](COP(=O)([O-])OCC[N+](C)(C)C)OCCCCC(=O)O` [VB-201, (R)-1-hexadecyl-2-(4′-carboxyl)butyl-sn-glycero-3-phosphocholine], the “inhibition of 12-LO (12-lipoxygenase)” value [1] is reported as “No inhibition”, the monocyte viability [2] is reported as “no effect on monocyte viability” and the “ERK1/2 phosphorylation in stimulated monocytes” value ([3]; 50 ng/ml RANTES) is reported as “inhibited ERK1/2 phosphorylation”. The “phosphorylation levels of ERK1/2” value ([3]; 5 μg/ml VB-201, Fractalkine-stimulated cells) was “considerable reduction”, the “phosphorylation levels of Akt” value [3, 20] was “considerable reduction” and the “phosphorylation levels of ERK1/2” value [3, 20] was “considerable reduction”. The “phosphorylation levels of MEK1/2” value [3, 20] was “considerable reduction”, the “phosphorylation levels of p38” value [3, 20] was “but not in phosphorylation levels of p38” and the “ERK1/2 phosphorylation in monocytes pre-stimulated with MCP-1 overnight” value ([3]; 8.5 μM VB-201 for 2, 5 or 15 min, 10 ng/ml MCP-1, 16 hrs) was “reduction of ERK1/2 phosphorylation in starting at 5 min”. The “p38 phosphorylation following activation of TLR5” value [4] was “no apparent effect”, the “effect on vascular inflammation in patients undergoing statin therapy versus patients not being treated with statins” value [5] was “slightly better” and the “cell migration in wound-healing scratch assay” value [6] was “no effect on cell migration”. The “effect of Wortmannin, Rapamycin and GW5074 on chemotaxis of THP-1 cells with added VB-201” value ([7]; VB-201 8.5 μM) was “further enhanced”, the “in vitro migration of THP-1 cells” value ([7]; pretreatment 30 minutes, 2 or 5 μg/ml) was “significantly inhibited in vitro migration of THP-1 cells in a dose-dependent manner” and the “cell migration in wound-healing scratch assay” value [8] was “no effect on cell migration”. The “phospho-AKT(Ser473) levels” value ([9]; 30 μg/ml CRP) was “reduction in phospho-ERK1/2 and phospho-AKT(Ser473) levels”, the phospho-ERK1/2 levels ([9]; 30 μg/ml CRP) was “reduction in phospho-ERK1/2 and phospho-AKT(Ser473) levels” and the “phospho-AKT(Ser473) levels” value ([9]; 100 μM GTP-γ-s) was “reduction in phospho-ERK1/2 and phospho-AKT (Ser473) levels”. The phospho-ERK1/2 levels ([9]; 100 μM GTP-γ-s) was “reduction in phospho-ERK1/2 and phospho-AKT (Ser473) levels”, the “EGF-induced ERK1/2 phosphorylation” value ([9]; EGF 200 ng/ml) was “inhibition of ERK1/2 phosphorylation in the THP-1 monocytic cell line” and the “activation relative to positive controls (agonist, Ca++ flux)” value [10] was “less than 5%”. For the same compound, the “inhibition of Lp-PLA2” value [11] was “No inhibition”, the “monocyte adhesion to HUVEC” value [12] was “had no effect on their adhesion to HUVEC” and the “activation of p38, ERK1/2 and the NFκB pathway following activation of TLR4” value [13] was “inhibited activation of p38, ERK1/2 and the NFκB pathway in a dose-dependent manner”. The CD4 cell chemotaxis [14] was “unable to find any inhibition”, the “ROS formation in human monocytes” value [15] was “no effect on ROS formation” and the “C-reactive protein-induced chemotaxis of human monocytes” value ([16]; 8.5 μM VB-201, 30 min, 50 ug/ml CRP, 3.5 hours, p<0.01) was “inhibit chemotaxis induced by CRP”. The “reduction of monocyte chemotaxis towards MCP-1 and RANTES (50 ng/ml each)” value ([16]; 30 min pre-incubation, PC 5 μg/ml, partially oxidized PAPC 40 μg/ml, PGPC 5 μg/ml, VB-201 5 μg/ml) was “profound inhibition of monocyte chemotaxis”, the “reduction of monocyte migration, MCP-1 as chemoattractant” value ([16]; VB-201 5 μg/ml, MCP-1 50 ng/ml, compared to solvent control) was “approximately 80%” and the “reduction of monocyte migration, MIP-1α as chemoattractant” value ([16]; VB-201 5 μg/ml, MIP-1α 50 ng/ml, compared to solvent control) was roughly 68%. The “reduction of monocyte migration, RANTES as chemoattractant” value ([16]; VB-201 5 μg/ml, RANTES 100 ng/ml, compared to solvent control) was roughly 72%, the “monocyte chemotaxis towards the compound (cell attractant in lower chamber)” value ([16]; data not shown) was “no monocyte chemotaxis towards VB-201 occurred” and the “inhibition of monocyte migration towards HUVEC growth medium” value ([16]; dose of 5 μg/ml) was “about 60%”. The “monocyte migration towards HUVEC growth medium” value ([16]; escalating doses) was “reduced the number of migrating cells in a dose-dependent fashion”, the “agonistic or antagonistic effect on G-coupled protein receprors (GPRC)” value [17] was “no agonistic or antagonistic effect” and the “chemotaxis of human Neutrophils” value [18] was “no effect on chemotaxis”. For the same compound, the “binding to cell surface expressed TLR2” value [19] was “Binds Cell Surface Expressed TLR2”.
